Starred links: 1 amine or outer side, 2 acyl side, 3 side chain; linkers in the order of their positions; H or OH if unused. Positions of bridges follow the written chain, without caps; N, C: chain ends. Non-standard residues stand in square brackets, D forms with d. Residues, ends and D or L forms follow the SMILES beside them. Triazole bridges read from a SMILES are 1,4-linked. *: point of attachment. DOTA = O=C(O)CN1CCN(CC(=O)O)CCN(CC(=O)*)CCN(CC(=O)O)CC1; Pteroyl = Nc1nc2ncc(CNc3ccc(C(=O)*)cc3)nc2c(=O)[nH]1; Biotin = O=C1N[C@H]2[C@H](CS[C@H]2CCCCC(=O)*)N1; Butanoyl(4-(4-MePh)) = Cc1ccc(CCCC(=O)*)cc1; Lys(N3) = [N-]=[N+]=NCCCC[C@H](N)C(=O)O; γGlu = O=C(O)[C@H](CCC(=O)[*:2])N[*:1]; AEEEA = NCCOCCOCCOCC(=O)O; Pra = C#CC[C@H](N)C(=O)O
Columns and labels:
[1] = in vivo; settings: female, NSG, mouse, iv, total radioactivity
Description: (§1) Water and food were provided ad libitum. […] Tumor growth was monitored by caliper measurements.
CT scans were acquired for anatomical reference. Imaging was performed on a GENISYS^8 microPET/CT small animal scanner.
NSG mice were engrafted with OVCAR3 cells subcutaneously. […] Absorption of the radiotracer by highly perfused organs including the lungs indicate systemic circulation of the compound. Compound clearance is driven at the very early timepoints by a combination of hepatic and renal excretion. Over time, clearance is exclusively renal with retention of the compound in the tumor, and kidney.

[2] = test system: OVCAR3 (FOLR1+) tumor bearing NSG mice; settings: mouse, in vivo
Description: Female, 7-week-old NSG mice were housed under pathogen-free conditions. Water and food were provided ad libitum. To create mice with FOLR1+ ovarian xenograft tumors, mice were injected subcutaneously with OVCAR3 cells (1×10^7 cells per mouse) resuspended in 50% Matrigel in PBS into the shoulder region. Tumor growth was monitored by caliper measurements. OVCAR3 is a human ovarian adenocarcinoma known to over-express FOLR1.
^68Ga PET imaging was used to study in vivo biodistribution of heterobiligands in non-tumor bearing (healthy) mice and OVCAR3 tumor bearing mice. 100-200 μCi of [^68Ga]DOTA-labeled heterobiligand was administered intravenously (i.v.) via the tail vein of each mouse. […]
Evaluation of a folate-hshta (SEQ ID NO:6) Nterm heterobiligand bearing both an albumin binder and DOTA chelator in PET was a priority, given that DOTA can accommodate both ^68Ga for imaging and ^177Lu for radiotherapy. […] The time-course biodistribution of ^68Ga-labeled folate-hshta-PEG3-Lys(MPBA)-Lys(DOTA) (SEQ ID NO:6) (compound #2809) was calculated to quantify the uptake in major organs including the tumor (FIG. 17). […] Larger tumors (490 mm^3) were also evaluated with the ^68Ga-chelated PET probe.
Biodistribution was initially evaluated by PET imaging, as the time frame for a significant portion of clearance is roughly similar to the time frame of PET imaging experiments. […]

[3] = test system: mouse plasma proteins; assay: Plasma protein binding, CD-1 mouse plasma; type: in vitro ADME; settings: CD-1 mouse plasma
Description: (§2) HTD 96 a/b regenerated cellulose membrane strips with mass cutoff of 12-14 kDa were soaked in ultra-pure water at room temperature for 1 hour. Each swelled membrane was then soaked in 20:80 ethanol:water for 20 minutes.
(§3) Just prior to the experiment, the membranes were re-soaked in ultra-pure water. Plasma was prepared by thawing under cold water. The plasma was centrifuged to remove any clots and pH was adjusted to 7.0-8.0. Test articles and control compounds were diluted to 2 μM. The dialysis device was loaded by transferring 150 μL of the test article (in triplicate) to the donor side. The dialysis device was placed in a humidified incubator at 37° C. with 5% CO2 in a shaking platform that rotated slowly for 4 hours. After incubation, 50 μL of the supernatant was taken from both sides and analyzed by LC-MS/MS.

[4] = test system: human plasma proteins; assay: Plasma protein binding, human plasma; type: in vitro ADME; settings: human plasma
Description: as §2, §3

[5] = test system: OVCAR3 FOLR1+ cells (PC-3 FOLR1− cells as negative line); assay: Flow cytometry binding to FOLR1 (+) and FOLR1 (−) cell lines; type: cell-based, human; settings: for binding selectivity for FOLR1 (+) cells over FOLR1 (−) cells: OVCAR3 vs PC-3, flow cytometry
Description: Both the kyeet (SEQ ID NO:9) and hshta (SEQ ID NO:6)-derived biligands were tested by flow cytometry for binding to FOLR1 (+) and FOLR1 (−) cell lines (FIGS. 6 and 7). The human ovarian adenocarcinoma-derived cell line OVCAR3 has robust FOLR1 expression and was selected as the FOLR1 (+) cell line. The human prostate adenocarcinoma-derived cell line PC-3 was selected as a FOLR1 (−) cell line.

[6] = biological target: T1, FOLR1 (Homo sapiens, UniProt P15328); assay: ELISA assay of FOLR1 binding
Description: FIG. 5 is a diagram of ELISA assay of FOLR1 binding of heterobiligands.

[7] = test system: OVCAR3 xenograft; assay: 177Lu FOLR1 radioligand therapy of OVCAR3 xenografts; type: in vivo, mouse
Description: as §1
OVCAR3 tumor bearing mice were used to study FOLR1-directed radioligand therapy (RLT) for treatment of ovarian cancer. Animals were administered a single dose of heterobiligand (vehicle control) or 111, 37, 18.5, 9.25, or 3.7 MBq [^177Lu]DOTA-labeled heterobiligand. Mice received the dose intravenously (i.v.) via the tail vein. To monitor the effect of the RLT, tumor size measurements were taken twice weekly and body weights were measured.
Single dose treatments at 18.5 MBq/nmol specific activity. OVCAR3 mouse model was used. 10^7 cell tumors were implanted in the mice one month before administration of ^177Lu-#6305. Five mice each were administered Cold #6305, 9.25 MBq Lu177-#6305, and 14.8 MBq Lu177-#6305, and two mice were administered 29.6 MBq Lu177-#6305. Tumor growth and body weight were then monitored.
Female NSG mice were implanted subcutaneously with OVCAR3 cells. Once tumors reached volumes of 200 mm^3, the animals were treated with 177-Lu 7327. Three treatment arms of 9.25 MBq, 14.8 MBq, and 29.6 MBq were studied.

[8] = biological target: T1, FOLR1; assay: Folic acid competition ELISA; type: binding
Description: A competition experiment was conducted to further understand the binding kinetics of the lead heterobiligand (folate-hshta (SEQ ID NO:6) Nterm heterobiligand).

[9] = Maximum tolerated dose (MTD) tolerability study
Description: In order to establish a maximum tolerated dose (MTD), a tolerability study was undertaken testing increasing amounts of the 177-Lu heterobiligand 7327 (folate-hshta-Gly-Phe-Lys(DOTA)). Animals were monitored for signs of toxicity and weighed twice weekly. […] The second and third doses were administered 21 days following the previous dose.
Efforts were undertaken to evaluate 177-Lu 6305 (folate-hshta-Lys(MPBA)-Gly-Phe-Lys(DOTA)), a compound with a brush border cleavable linker in addition to an albumin binder. […] Two separate MTD experiments were undertaken. […] A second experiment interrogated lower doses.
In order to establish a MTD, dose range finding studies were undertaken testing increasing amounts of Indi ^177Lu-7327 in healthy, non-tumor bearing female NSG mice using IV administration (FIGS. 34 and 35). Mouse body weight and behavior were monitored. […] The second and third doses were administered 21 days following the previous dose.

[10] = test system: OVCAR3 xenograft; assay: 177Lu FOLR1 radioligand therapy of OVCAR3 xenografts; type: in vivo, mouse; remark: listed apart in the source

T1 sequence (P15328 25-234): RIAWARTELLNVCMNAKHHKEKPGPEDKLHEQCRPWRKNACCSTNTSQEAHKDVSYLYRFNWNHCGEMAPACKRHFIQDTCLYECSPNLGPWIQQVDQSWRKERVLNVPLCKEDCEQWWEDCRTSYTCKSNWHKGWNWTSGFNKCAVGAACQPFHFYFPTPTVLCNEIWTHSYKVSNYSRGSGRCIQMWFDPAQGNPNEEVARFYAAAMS

C[C@H](O)[C@H]1NC(=O)[C@@H](Cc2cnc[nH]2)NC(=O)[C@@H](CO)NC(=O)[C@@H](Cc2cnc[nH]2)NC(=O)[C@@H](NC(=O)CC[C@H](NC(=O)c2ccc(NCc3cnc4nc(N)[nH]c(=O)c4n3)cc2)C(=O)O)Cc2cn(nn2)CCCC[C@@H](C(=O)NCCOCCOCCOCC(=O)N[C@@H](CCCCNC(=O)CO/N=C/c2ccc([18F])cc2)C(N)=O)NC(=O)[C@@H](C)NC1=O
tissue uptake per volume at 4 h ([1]; accumulation in the tumor): ~4 %ID/mL
tissue uptake per volume at 4 h ([1]; radiotracer accumulation in the tumor): 3.5 to 5.5 %ID/mL

C[C@H](O)[C@H]1NC(=O)[C@@H](Cc2cnc[nH]2)NC(=O)[C@@H](CO)NC(=O)[C@@H](Cc2cnc[nH]2)NC(=O)[C@@H](NC(=O)CC[C@H](NC(=O)c2ccc(NCc3cnc4nc(N)[nH]c(=O)c4n3)cc2)C(=O)O)Cc2cn(nn2)CCCC[C@@H](C(=O)NCC(=O)N[C@@H](Cc2ccccc2)C(=O)N[C@@H](CCCCNC(=O)CN2CCN(CC(=O)O)CCN(CC(=O)O)CCN(CC(=O)O)CC2)C(=O)O)NC(=O)[C@@H](C)NC1=O [Indi ^68Ga-7327, metal not drawn] ({Pteroyl-γGlu}-[Pra][dH][dS][dH][dT][dA][Lys(N3)]GFK(DOTA)-OH; triazole 1-7)
kidney uptake (PET) [2]: significant reduction in kidney uptake

C[C@@H](O)[C@@H]1NC(=O)[C@H](CCCCN)NC(=O)[C@@H](Cc2c[nH]c3ccccc23)NC(=O)[C@H](Cc2ccccc2)NC(=O)[C@@H](NC(=O)[C@H](N)Cc2ccccc2)CSSC[C@@H](C(=O)N[C@H](CO)[C@@H](C)O)NC1=O [Octreotide Acetate, reference compound]
Plasma % Bound, Mu [3]: 62.36%
Plasma protein binding % Recovery, Mu [3]: 84.5%
Plasma % Bound, Hu [4]: 59.41%
Plasma protein binding % Recovery, Hu [4]: 84.3%

Cc1ccc(CCCC(=O)NCCCC[C@H](NC(=O)COCCOCCOCCNC(=O)[C@@H]2CCCCn3cc(nn3)C[C@H](NC(=O)CC[C@H](NC(=O)c3ccc(NCc4cnc5nc(N)[nH]c(=O)c5n4)cc3)C(=O)O)C(=O)N[C@H](Cc3c[nH]cn3)C(=O)N[C@H](CO)C(=O)N[C@H](Cc3c[nH]cn3)C(=O)N[C@H]([C@H](C)O)C(=O)N[C@H](C)C(=O)N2)C(=O)N[C@@H](CCCCNC(=O)CN2CCN(CC(=O)O)CCN(CC(=O)O)CCN(CC(=O)O)CC2)C(N)=O)cc1 [^68Ga-chelated compound #2809, metal not drawn] ({Pteroyl-γGlu}-[Pra][dH][dS][dH][dT][dA][Lys(N3)][AEEEA]K(Butanoyl(4-(4-MePh)))K(DOTA)-NH2; triazole 1-7)
accumulation within the tumor ([2]; iv, 200 uCi, 4 h): ~2.2 % of the injected dose/cc

C[C@H](O)[C@H]1NC(=O)[C@@H](CCC(=O)O)NC(=O)[C@@H](CCC(=O)O)NC(=O)[C@@H](Cc2ccc(O)cc2)NC(=O)[C@@H](CCCCN)NC(=O)[C@@H](NC(=O)[C@H](Cc2cn(CCOCCOCCOCCNC(=O)CC[C@H](NC(=O)c3ccc(NCc4cnc5nc(N)[nH]c(=O)c5n4)cc3)C(=O)O)nn2)NC(=O)CCOCCOCCOCCOCCOCCOCCOCCOCCOCCOCCNC(=O)CCOCCOCCOCCOCCOCCOCCOCCOCCOCCOCCNC(=O)CCCC[C@@H]2SC[C@@H]3NC(=O)N[C@@H]32)Cc2cn(nn2)CCCC[C@@H](C(N)=O)NC1=O [folate-kyeet heterobiligand]
binding selectivity for FOLR1 (+) cells ([5]; 40 nM of the test article): Virtually complete selectivity
binding selectivity for FOLR1 (+) cells over FOLR1 (−) cells [5]: high selectivity
EC50 ([6]; read-out: EC50 (ELISA, FOLR1)): 149 pM

C[C@H](O)[C@H]1NC(=O)[C@@H](Cc2c[nH]cn2)NC(=O)[C@@H](CO)NC(=O)[C@@H](Cc2c[nH]cn2)NC(=O)[C@@H](NC(=O)COCCOCCOCCNC(=O)CCCC[C@@H]2SC[C@@H]3NC(=O)N[C@@H]32)Cc2cn(nn2)CCCC[C@@H](C(N)=O)NC(=O)[C@@H](C)NC1=O [hshta] ({Biotin-AEEEA}-[Pra][dH][dS][dH][dT][dA][Lys(N3)]-NH2; triazole 1-7)
binding selectivity for FOLR1 (+) cells over FOLR1 (−) cells [5]: higher selectivity for FOLR1 than kyeet
affinity for recombinant human FOLR protein in ELISA ([6]; tested alone): low micromolar affinity

Folate-hshta-G-F-K(^177Lu-DOTA)-OH [^177Lu-#7327]
caliper-measured tumor volume ([7]; 29.6 MBq arm, following the second dose): stabilized and then fell
time to statistically significant differential between treated and untreated ([7]; 29.6 MBq arm, p≤0.05): 12 days post injection
loss of body weight ([7]; 29.6 MBq dose, two doses): 5-10%
body weights of treated mice ([7]; (+/−10%)): normal body weights
tumor response ([7]; two treatments at 29.6 MBq followed by a third treatment at 74 MBq): Tumor regression
outcompeting native folate for receptor binding [8]: approximately 500 fold
tolerability ([9]; doses of 111 MBq and 185 MBq): not tolerated
tolerability ([9]; doses of 111 MBq and 185 MBq, listed as Indi ^177Lu-7327): lost substantial body weight
tolerability ([9]; repeated doses of 14.8, 22.2, 29.6, and 37 MBq, 21 days apart): well tolerated
tolerated radioactive doses ([9]; three treatments, healthy non-tumor bearing female NSG mice): up to 111 MBq
body weight loss after second dose ([10]; 9.25 MBq and 14.8 MBq arms, second dose 21 days after first): minimal
tolerability of first dose ([10]; 9.25 MBq, 14.8 MBq, and 29.6 MBq arms): well tolerated
tumor sizes after additional treatment on day 24 ([10]; 46.3, 74 and 148 MBq groups): shrinking tumor sizes
tumor volumes ([10]; 46.3 MBq group, elevated dose): stable tumor volumes
decrease of tumor volumes, on average ([10]; 74 MBq and 148 MBq arms, single elevated dose at 45 days post injection): 50%
body weight ([10]; 74 MBq and 148 MBq, elevated dose): modest body weight loss
time to statistically significant differential between treated and control ([10]; 74 MBq arm): 24 days post-injection
body weight after second dose ([10]; highest dose (29.6 MBq)): modest loss of body weight that stabilized and then rebounded
tumor volume ([10]; two doses at 74 MBq, 21 days apart, vs 0 MBq control): decrease in tumor volume
tumor volume ([10]; two doses, arms of 9.25, 14.8, and 29.6 MBq): dose dependent decrease in tumor volume
tumor response ([10]; two treatments at 29.6 MBq): tumor stasis
tumor response ([10]; two treatments at 74 MBq): Tumor stasis

From patent publication US11766414B2, “Compositions, delivery systems, and methods useful in tumor therapy” (Indi Molecular, Inc., priority 2020, dated 2023)
